Assay results as given in patent publication US8895733B2 (Novartis AG, priority 2010, dated 2014).

Target: T1, Nav 1.7 (Homo sapiens, UniProt Q15858)
T1 construct: expressed in transfected cells
Assay: Whole-cell voltage clamp electrophysiology, manual patch clamp (marker b in Table of Examples)
Assay type: cell-based
Conditions: 10 μM; marker b: Manual patch clamp data
Source text: a.IonWork Quattro data, b=Manual patch clamp data, c=Automated patch clamp data M=Method
Whole-Cell Voltage Clamp Electrophysiology Assay
Patch-clamp electrophysiology is considered the gold standard technique for investigation of ion channel function and pharmacology. Using this method, sodium channel currents can be measured in cells, which stably (or transiently) express the sodium channel subtype of interest. Application of compounds during such experiments provides a functional measure of the activity and potency of compounds affecting the ion channel of interest.
Electrophysiological studies can also be performed using the whole cell configuration of the standard manual patch clamp technique as described in the literature (e.g. Pflugers Arch., 1981, 391(2), 85-100). In this assay, cells that express the voltage-gated sodium channel protein of interest are exposed to the drugs by conventional microperfusion systems, or by a home-built perfusion system. A suitable voltage stimulus protocol is used to activate the voltage-gated sodium channels.
A suitable voltage stimulus protocol is used to activate voltage-gated sodium channel proteins of interest. A typical stimulus protocol may consist of sweeps of sequential voltage pulses starting from a holding potential (i.e. −65 mV), to a more positive and depolarising test pulse potential (i.e. −10 mV) and finally to a more negative and hyperpolarising potential (i.e. −100 mV). According to the biophysics of the voltage-gated ion channel of interest and interest in channel configuration the voltages and durations of the pulses as well as the overall frequency of sweeps applied might vary. Accordingly, a stimulus protocol was designed to assess compounds due to their potential to block NaV1.7 channels primarily in inactivated state. Selectivity over other voltage-gated sodium channel members was assessed by protocols that reflect the native function of the channels (i.e. heart rate or firing of neurons).
Electrophysiological studies can also be performed using the whole cell configuration of the standard manual patch clamp technique as described in the literature (e.g. Pflugers Arch., 1981, 391(2), 85-100). In this assay, cells that express the human voltage-gated sodium channel protein of interest are exposed to the drugs by conventional microperfusion systems, or by a home-built perfusion system. A suitable voltage stimulus protocol is used to activate the voltage-gated sodium channels. A suitable voltage stimulus protocol may consist of sequential voltage pulses from a holding potential, each first hyperpolarizing the cell, then depolarizing the channels for a brief period. A particularly suitable holding potential may be a voltage allowing a fraction of channels to remain in an inactivated state, like −60 mV. A suitable hyperpolarizing voltage and duration may be −120 mV for 100 ms, and depolarization voltage and duration may be −20 mV for 25 ms, and a suitable frequency of pulses may be 0.1 Hz, but may also have other parameters. Accordingly, a stimulus protocol was designed to assess compounds due to their potential to block NaV1.7 channels primarily in inactivated state. Selectivity over other voltage-gated sodium channel members was assessed by protocols that reflect the native function of the channels (i.e. heart rate or firing of neurons).

T1 sequence (Q15858 whole entry): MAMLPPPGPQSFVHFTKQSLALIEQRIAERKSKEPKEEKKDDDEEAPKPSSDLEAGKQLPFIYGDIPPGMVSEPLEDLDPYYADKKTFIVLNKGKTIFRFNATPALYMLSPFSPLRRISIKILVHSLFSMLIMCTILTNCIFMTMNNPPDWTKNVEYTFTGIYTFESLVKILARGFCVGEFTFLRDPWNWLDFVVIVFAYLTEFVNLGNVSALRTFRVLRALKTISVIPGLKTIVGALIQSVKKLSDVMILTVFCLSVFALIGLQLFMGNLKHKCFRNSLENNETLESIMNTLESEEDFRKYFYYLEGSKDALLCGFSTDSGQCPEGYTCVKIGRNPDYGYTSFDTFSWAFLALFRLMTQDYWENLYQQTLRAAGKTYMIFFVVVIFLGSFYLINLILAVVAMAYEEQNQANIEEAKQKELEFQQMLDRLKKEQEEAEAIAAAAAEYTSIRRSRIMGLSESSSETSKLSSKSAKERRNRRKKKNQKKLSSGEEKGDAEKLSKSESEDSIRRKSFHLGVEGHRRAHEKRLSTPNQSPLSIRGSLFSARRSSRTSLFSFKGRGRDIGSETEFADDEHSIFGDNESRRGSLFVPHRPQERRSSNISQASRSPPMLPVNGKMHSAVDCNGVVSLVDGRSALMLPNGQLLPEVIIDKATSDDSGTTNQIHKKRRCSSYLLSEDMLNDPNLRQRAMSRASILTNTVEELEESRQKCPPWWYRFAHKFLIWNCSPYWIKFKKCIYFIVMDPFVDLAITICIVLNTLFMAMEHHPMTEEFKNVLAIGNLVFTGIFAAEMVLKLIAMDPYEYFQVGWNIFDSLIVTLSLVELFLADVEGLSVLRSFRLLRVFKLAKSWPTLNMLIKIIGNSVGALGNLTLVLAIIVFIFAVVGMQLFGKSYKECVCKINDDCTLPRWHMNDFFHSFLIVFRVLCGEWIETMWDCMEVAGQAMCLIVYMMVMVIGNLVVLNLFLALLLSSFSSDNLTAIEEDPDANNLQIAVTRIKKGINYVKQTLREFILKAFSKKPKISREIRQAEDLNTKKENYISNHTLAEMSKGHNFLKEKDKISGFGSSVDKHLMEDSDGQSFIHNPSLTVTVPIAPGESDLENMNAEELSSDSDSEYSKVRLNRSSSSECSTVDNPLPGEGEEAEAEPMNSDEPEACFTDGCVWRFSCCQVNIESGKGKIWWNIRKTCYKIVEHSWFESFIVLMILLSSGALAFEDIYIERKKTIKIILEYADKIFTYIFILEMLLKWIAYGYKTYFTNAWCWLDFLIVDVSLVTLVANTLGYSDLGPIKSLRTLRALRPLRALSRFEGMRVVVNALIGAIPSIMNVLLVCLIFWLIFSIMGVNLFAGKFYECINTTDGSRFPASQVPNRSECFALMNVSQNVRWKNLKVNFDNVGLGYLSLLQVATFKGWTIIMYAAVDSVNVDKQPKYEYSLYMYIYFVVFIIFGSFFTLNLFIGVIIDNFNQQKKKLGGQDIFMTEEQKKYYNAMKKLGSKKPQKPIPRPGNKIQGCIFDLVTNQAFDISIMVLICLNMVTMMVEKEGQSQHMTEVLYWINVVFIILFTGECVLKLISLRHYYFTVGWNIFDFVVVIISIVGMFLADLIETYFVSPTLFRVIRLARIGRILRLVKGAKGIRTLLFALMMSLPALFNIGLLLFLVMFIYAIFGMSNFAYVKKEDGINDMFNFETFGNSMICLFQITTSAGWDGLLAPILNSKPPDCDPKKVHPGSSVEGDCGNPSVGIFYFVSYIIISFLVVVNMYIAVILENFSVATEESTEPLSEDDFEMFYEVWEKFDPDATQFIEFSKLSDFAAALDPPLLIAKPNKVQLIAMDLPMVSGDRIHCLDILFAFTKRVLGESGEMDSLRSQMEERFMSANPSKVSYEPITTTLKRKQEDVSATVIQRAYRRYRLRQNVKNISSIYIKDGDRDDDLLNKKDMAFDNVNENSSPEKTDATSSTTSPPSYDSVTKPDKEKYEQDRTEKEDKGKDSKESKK

Nav 1.7 activity, % at 10 μM | SMILES
44% (10 μM)^b | CN(c1ccccc1)c1nc(N)nc(-c2noc(-c3cccc(Cl)c3)n2)n1 [Example 35, 6-[5-(3-Chloro-phenyl)-[1,2,4]oxadiazol-3-yl]-N-methyl-N-phenyl-[1,3,5]triazine-2,4-diamine]
50% (10 μM)^b | CN(c1ccccc1)c1nc(N)nc(-c2noc(-c3ccoc3)n2)n1 [Example 37, 6-(5-Furan-3-yl-[1,2,4]oxadiazol-3-yl)-N-methyl-N-phenyl-[1,3,5]triazine-2,4-diamine]

Same assay, conditions: marker b = Manual patch clamp data; read-out: Nav 1.7 activity

IC50 [nM] | SMILES
97 | CN(c1ccccc1)c1nc(N)nc(-c2noc(C3CCN(Cc4ccccc4)C3)n2)n1 (stereo not drawn) [Example 207, 6-[5-(1-benzylpyrrolidin-3-yl)-1,2,4-oxadiazol-3-yl]-2-N-methyl-2-N-phenyl-1,3,5-triazine-2,4-diamine]
276 | CN(c1ccccc1)c1nc(N)nc(-c2noc(-c3ccc([S+]([O-])CC(F)(F)F)nc3)n2)n1 (stereo not drawn) [Example 320, 2-N-methyl-2-N-phenyl-6-(5-{6-[(2,2,2-trifluoroethane)sulfinyl]pyridin-3-yl}-1,2,4-oxadiazol-3-yl)-1,3,5-triazine-2,4-diamine]
815 | CN(c1ccccc1)c1nc(N)nc(-c2noc(-c3ccn(CC(F)(F)F)n3)n2)n1 [Example 256, 2-N-Methyl-2-N-phenyl-6-{5-[1-(2,2,2-trifluoroethyl)-1H-pyrazol-3-yl]-1,2,4-oxadiazol-3-yl}-1,3,5-triazine-2,4-diamine]
172 | CN(c1ccccc1)c1nc(N)nc(-c2noc(-c3cccnc3OCC(F)(F)F)n2)n1 [Example 477, 2-N-methyl-2-N-phenyl-6-{5-[2-(2,2,2-trifluoroethoxy)pyridin-3-yl]-1,2,4-oxadiazol-3-yl}-1,3,5-triazine-2,4-diamine]
1490 | Cc1csc(-c2nc(-c3nc(N)nc(N(C)c4ccccc4)n3)no2)n1 [Example 341, 2-N-methyl-6-[5-(4-methyl-1,3-thiazol-2-yl)-1,2,4-oxadiazol-3-yl]-2-N-phenyl-1,3,5-triazine-2,4-diamine]
308 | COc1cnc(-c2nc(-c3nc(N)nc(N(C)c4ccccc4)n3)no2)c(OC)c1 [Example 282, 6-[5-(3,5-Dimethoxypyridin-2-yl)-1,2,4-oxadiazol-3-yl]-2-N-methyl-2-N-phenyl-1,3,5-triazine-2,4-diamine]
1060 | CN(c1ccccc1)c1nc(N)nc(-c2noc(-c3ncccn3)n2)n1 [Example 278, 2-N-methyl-2-N-phenyl-6-[5-(pyrimidin-2-yl)-1,2,4-oxadiazol-3-yl]-1,3,5-triazine-2,4-diamine]
283 | CN(c1ccccc1)c1nc(N)nc(-c2noc(N3CCC(COCC4CC4)CC3)n2)n1 [Example 216, 6-(5-{4-[(Cyclopropylmethoxy)methyl]piperidin-1-yl}-1,2,4-oxadiazol-3-yl)-2-N-methyl-2-N-phenyl-1,3,5-triazine-2,4-diamine]
945 | Cc1cccc(-c2nc(-c3nc(N)nc(N(C)c4ccccc4)n3)no2)n1 [Example 271, 2-N-methyl-6-[5-(6-methylpyridin-2-yl)-1,2,4-oxadiazol-3-yl]-2-N-phenyl-1,3,5-triazine-2,4-diamine]
900 | CN(c1ccccc1)c1nc(N)nc(-c2noc(-c3ccnc(OCC(F)(F)F)c3)n2)n1 [Example 472, 2-N-methyl-2-N-phenyl-6-{5-[2-(2,2,2-trifluoroethoxy)pyridin-4-yl]-1,2,4-oxadiazol-3-yl}-1,3,5-triazine-2,4-diamine]
127 | CN(c1ccccc1)c1nc(N)nc(-c2noc(N3CC(Oc4ccccc4)C3)n2)n1 [Example 489, 2-N-methyl-6-[5-(3-phenoxyazetidin-1-yl)-1,2,4-oxadiazol-3-yl]-2-N-phenyl-1,3,5-triazine-2,4-diamine]

Same assay, conditions: marker b: Manual patch clamp data; read-out: Nav 1.7 activity

IC50 [nM] | SMILES
44 | CN(c1cccc(F)c1)c1nc(N)nc(-c2noc(-c3ccc(OCC4CC4)nc3)n2)n1 [Example 135, 6-{5-[6-(cyclopropylmethoxy)pyridin-3-yl]-1,2,4-oxadiazol-3-yl}-2-N-(3-fluorophenyl)-2-N-methyl-1,3,5-triazine-2,4-diamine]
21 | COc1cccc(F)c1-c1nc(-c2nc(N)nc(N(C)c3ccccc3)n2)no1 [Example 81, 6-[5-(2-Fluoro-6-methoxy-phenyl)-[1,2,4]oxadiazol-3-yl]-N-methyl-N-phenyl-[1,3,5]triazine-2,4-diamine]
91 | Nc1nc(Nc2ccccc2)nc(-c2noc(-c3ccco3)n2)n1 [Example 2, 6-(5-Furan-2-yl-[1,2,4]oxadiazol-3-yl)-N-phenyl-[1,3,5]triazine-2,4-diamine]
635 | CN(c1ccccc1)c1nc(N)nc(-c2noc(-c3ccc(OC(F)(F)F)nc3)n2)n1 [Example 133, 2-N-methyl-2-N-phenyl-6-{5-[6-(trifluoromethoxy)pyridin-3-yl]-1,2,4-oxadiazol-3-yl}-1,3,5-triazine-2,4-diamine]
2220 | CN(c1ccccc1)c1nc(N)nc(-c2noc(-c3cncc(N)c3)n2)n1 [Example 54, 6-[5-(5-Amino-pyridin-3-yl)-[1,2,4]oxadiazol-3-yl]-N-methyl-N-phenyl-[1,3,5]triazine-2,4-diamine]
661 | Cc1ccc(N(C)c2nc(N)nc(-c3noc(-c4ccco4)n3)n2)cc1 [Example 4, 6-(5-Furan-2-yl-[1,2,4]oxadiazol-3-yl)-N-methyl-N-(4-methylphenyl)-[1,3,5]triazine-2,4-diamine]
148 | COc1ccc(-c2nc(-c3nc(N)nc(N(C)c4ccccc4)n3)no2)cc1 [Example 26, 6-[5-(4-Methoxy-phenyl)-[1,2,4]oxadiazol-3-yl]-N-methyl-N-phenyl-[1,3,5]triazine-2,4-diamine]
195 | COC(=O)c1ccc(-c2nc(-c3nc(N)nc(N(C)c4ccccc4)n3)no2)s1 [Example 82, 5-{3-[4-amino-6-(methyl-phenyl-amino)-[1,3,5]triazin-2-yl]-[1,2,4]oxadiazol-5-yl}-thiophene-2-carboxylic acid methyl ester]
42 | Nc1nc(Nc2cccc(F)c2)nc(-c2noc(-c3ccco3)n2)n1 [Example 117, N-(3-Fluorophenyl)-6-(5-furan-2-yl-[1,2,4]oxadiazol-3-yl)-[1,3,5]triazine-2,4-diamine]
909 | CN(c1ccccc1)c1nc(N)nc(-c2noc(-c3cncs3)n2)n1 [Example 52, N-Methyl-N-phenyl-6-(5-thiazol-5-yl-[1,2,4]oxadiazol-3-yl)-[1,3,5]triazine-2,4-diamine]
152 | CN(c1cccc(F)c1)c1nc(N)nc(-c2noc(-c3ccco3)n2)n1 [Example 15, N-(3-Fluoro-phenyl)-6-(5-furan-2-yl-[1,2,4]oxadiazol-3-yl)-N-methyl-[1,3,5]triazine-2,4-diamine]
216 | CN(c1ccccc1)c1nc(N)nc(-c2noc(-c3cccs3)n2)n1 [Example 11, N-Methyl-N-phenyl-6-(5-thiophen-2-yl-[1,2,4]oxadiazol-3-yl)-[1,3,5]triazine-2,4-diamine]
54 | Nc1nc(Nc2cccc(Cl)c2F)nc(-c2noc(-c3ccco3)n2)n1 [Example 111, N-(3-Chloro-2-fluoro-phenyl)-6-(5-furan-2-yl-[1,2,4]oxadiazol-3-yl)-[1,3,5]triazine-2,4-diamine]
1940 | COc1ccc(N(C)c2nc(N)nc(-c3noc(-c4ccco4)n3)n2)cc1 [Example 6, 6-(5-Furan-2-yl-[1,2,4]oxadiazol-3-yl)-N-methyl-N-(4-methoxyphenyl)-[1,3,5]triazine-2,4-diamine]
47 | COc1ccccc1-c1nc(-c2nc(N)nc(N(C)c3ccccc3)n2)no1 [Example 25, 6-[5-(2-Methoxy-phenyl)-[1,2,4]oxadiazol-3-yl]-N-methyl-N-phenyl-[1,3,5]triazine-2,4-diamine]
1120 | CCN(c1ccccc1)c1nc(N)nc(-c2noc(-c3nccs3)n2)n1 [Example 38, N-Ethyl-N-phenyl-6-(5-thiazol-2-yl-[1,2,4]oxadiazol-3-yl)-[1,3,5]triazine-2,4-diamine]
791 | COc1cccc(N(C)c2nc(N)nc(-c3noc(-c4ccco4)n3)n2)c1 [Example 5, 6-(5-Furan-2-yl-[1,2,4]oxadiazol-3-yl)-N-methyl-N-(3-methoxyphenyl)-[1,3,5]triazine-2,4-diamine]
